Patent US20120220581A1, “IMIDAZO[1,2-b]PYRIDAZINE DERIVATIVES AND THEIR USE AS PDE10 INHIBITORS” (Janssen-Cilag, S.A., priority 2009, published 2012)
Counter-ions that a name gives are not always drawn. Like-named read-outs stand apart in the source and are kept apart here.

What was measured:
[1] = target: T1, Rat recombinant PDE10A (rPDE10A2) (Rattus norvegicus, UniProt Q9QYJ6); assay: In vitro assay PDE10A (SPA, 3H-cAMP); assay type: biochemical
T1 construct: inferred from the Ni metal chelate purification; made in house; host or cells: Sf9 insect cells (baculovirus)
T1 sequence (Q9QYJ6 1-794): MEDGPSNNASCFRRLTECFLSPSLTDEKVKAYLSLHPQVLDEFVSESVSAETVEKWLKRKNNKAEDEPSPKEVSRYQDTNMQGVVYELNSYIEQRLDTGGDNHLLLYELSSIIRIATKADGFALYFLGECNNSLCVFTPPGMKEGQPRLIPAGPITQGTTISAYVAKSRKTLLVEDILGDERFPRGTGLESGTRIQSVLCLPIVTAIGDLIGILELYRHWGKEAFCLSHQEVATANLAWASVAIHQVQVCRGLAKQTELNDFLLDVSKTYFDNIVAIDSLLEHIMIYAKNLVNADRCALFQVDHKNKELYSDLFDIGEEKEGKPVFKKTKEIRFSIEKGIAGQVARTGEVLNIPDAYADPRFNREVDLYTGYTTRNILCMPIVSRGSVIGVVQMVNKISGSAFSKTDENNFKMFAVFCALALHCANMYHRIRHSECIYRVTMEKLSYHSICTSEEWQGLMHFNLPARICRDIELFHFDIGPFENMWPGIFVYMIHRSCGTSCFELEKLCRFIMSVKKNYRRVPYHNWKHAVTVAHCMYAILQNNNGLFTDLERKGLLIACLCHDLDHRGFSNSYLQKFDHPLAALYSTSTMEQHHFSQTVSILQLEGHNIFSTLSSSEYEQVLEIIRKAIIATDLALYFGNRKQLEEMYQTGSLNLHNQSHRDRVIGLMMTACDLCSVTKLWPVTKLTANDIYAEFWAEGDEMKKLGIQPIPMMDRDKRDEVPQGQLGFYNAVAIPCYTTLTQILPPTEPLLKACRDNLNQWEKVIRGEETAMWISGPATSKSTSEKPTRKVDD
Method in brief: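 Scintillation proximity read-out (cpm) of 3H-cAMP hydrolysis after 60 min at room temperature, with enzyme-free blanks and 1% DMSO controls. Enzyme was Sf9-expressed, Ni-sepharose-purified rat rPDE10A2; substrate 60 nM cAMP with tracer, buffer Tris pH 7.8 containing MgCl2 and EGTA.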

[2] = test system: apomorphine-induced stereotypy in rats; assay: Apomorphine-induced stereotypy in rats (APO); assay type: in vivo; conditions: Rattus norvegicus
Protocol: Apomorphine (1.0 mg/kg, i.v.)-induced stereotypy (compulsive sniffing, licking, chewing) was scored every 5 min over the first hour after injection of apomorphine, following a 1 hour interval pre-treatment with the test compound. The score system was: (3) pronounced, (2) moderate, (1) slight, and (0) absent.

[3] = target: T2, PDE10 (Rattus norvegicus, UniProt Q9QYJ6); assay: PDE10 occupancy ([3H]-MP-10, striatum); assay type: in vivo; conditions: for receptor occupancy at 10 mg/kg: rat, single dose 10 mg/kg
T2 construct: from tissue; host or cells: rat brain sections, striatum (in vivo dosing, ex vivo autoradiography)
T2 sequence (Q9QYJ6 1-794): T1 sequence (Q9QYJ6 1-794)
Protocol: Dose-response or single dose experiments were performed to measure PDE10 occupancy 1 hour after subcutaneous (s.c.) or oral (p.o.) administration. Male Wistar rats (200 g) were treated by s.c. or p.o. administration of various PDE10 inhibitors. The PDE10 radioligand [^3H]-MP-10 (10 μCi/animal) was injected intravenously (i.v.) 30 minutes before sacrifice. Brains were immediately removed from the skull and rapidly frozen. Twenty μm-thick brain sections were cut using a cryostat-microtome, thaw-mounted on microscope slides and loaded in a β-imager to quantify PDE10 occupancy in the striatum.

[4] = target: other members of the PDE family (Homo sapiens, UniProt O00408); assay: In vitro PDE selectivity assay (SPA), other members of the PDE family (protocols in Table A); assay type: biochemical; conditions: hPDE2A; read-out: PDE 2A (expressed as pIC50) (converted)
Chain of other members of the PDE family (O00408 whole entry): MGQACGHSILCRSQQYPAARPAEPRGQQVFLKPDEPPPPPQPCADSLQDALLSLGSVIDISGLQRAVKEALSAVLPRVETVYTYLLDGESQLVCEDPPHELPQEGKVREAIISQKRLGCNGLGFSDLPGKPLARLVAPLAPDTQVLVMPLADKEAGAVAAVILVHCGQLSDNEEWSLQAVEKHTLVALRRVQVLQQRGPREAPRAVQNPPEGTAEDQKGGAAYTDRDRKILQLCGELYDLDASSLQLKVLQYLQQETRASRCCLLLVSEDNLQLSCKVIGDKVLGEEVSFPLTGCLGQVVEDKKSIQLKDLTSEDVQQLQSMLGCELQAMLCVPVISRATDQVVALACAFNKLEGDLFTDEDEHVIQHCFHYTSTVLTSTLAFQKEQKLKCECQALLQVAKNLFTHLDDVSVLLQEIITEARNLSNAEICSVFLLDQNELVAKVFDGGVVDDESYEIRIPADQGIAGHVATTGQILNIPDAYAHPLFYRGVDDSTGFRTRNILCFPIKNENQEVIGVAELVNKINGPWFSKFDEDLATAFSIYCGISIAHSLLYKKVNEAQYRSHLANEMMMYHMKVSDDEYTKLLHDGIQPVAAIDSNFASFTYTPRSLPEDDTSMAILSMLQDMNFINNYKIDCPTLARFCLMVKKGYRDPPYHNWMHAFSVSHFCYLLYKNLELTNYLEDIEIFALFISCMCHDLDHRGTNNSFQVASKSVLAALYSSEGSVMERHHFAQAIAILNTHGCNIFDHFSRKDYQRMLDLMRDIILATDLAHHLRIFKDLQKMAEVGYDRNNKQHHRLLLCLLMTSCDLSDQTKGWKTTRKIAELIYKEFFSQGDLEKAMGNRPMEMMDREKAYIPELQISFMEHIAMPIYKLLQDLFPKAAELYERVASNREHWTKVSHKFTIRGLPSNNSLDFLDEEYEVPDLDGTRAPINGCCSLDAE
Protocol: Rat recombinant PDE10A (rPDE10A2) was expressed in Sf9 cells using a recombinant rPDE10A baculovirus construct. Cells were harvested after 48 h of infection and the rPDE10A protein was purified by metal chelate chromatography on Ni-sepharose 6FF. Tested compounds were dissolved and diluted in 100% DMSO to a concentration 100 fold of the final concentration in the assay. Compound dilutions (0.4 μl) were added in 384 well plates to 20 μl of incubation buffer (50 mM Tris pH 7.8, 8.3 mM MgCl2, 1.7 mM EGTA). 10 μl of rPDE10A enzyme in incubation buffer was added and the reaction was started by addition of 10 μl substrate to a final concentration of 60 nM cAMP and 0.008 μCi ^3H-cAMP. The reaction was incubated for 60 minutes at room temperature. After incubation, the reaction was stopped with 20 μl of stop solution consisting of 17.8 mg/ml PDE SPA (scintillation proximity assay) beads. After sedimentation of the beads during 30 minutes the radioactivity was measured in a Perkin Elmer Topcount scintillation counter and results were expressed as cpm. For blanc values the enzyme was omitted from the reaction and replaced by incubation buffer. Control values were obtained by addition of a final concentration of 1% DMSO instead of compound. The same assay principle is applied for the measurement of the affinity of the compound for other members of the PDE family with appropriate modifications in incubation buffer, substrate concentration, incubation time and stop solution. An overview of the different protocols is presented in table A. A best fit curve is fitted by a minimum sum of squares method to the plot of % of control value substracted with blanc value versus compound concentration and the half maximal inhibitory concentration (IC50) value is derived from this curve.
The compounds of the invention are generally selective for PDE10 compared to other PDEs and there are a few that also have affinity for PDE1B1, 4D3 and 5A3.

[5] = pIC50 corresponds to the −log IC50 expressed in mol/L, read-out: PDE10A2 pIC50 (converted)
[6] = n.d.: found not active at threshold dose 2.5 mg/kg or 10 mg/kg (a), not further tested
[7] = oral, read-out: SD po % occupancy at 10 mg/kg
[8] = po, n.d.: found not active at threshold dose 2.5 mg/kg or 10 mg/kg (a), * not soluble, tested orally as a suspension
[9] = Table 4 in vitro selectivity, read-out: PDE 10A2 (expressed as pIC50) (converted)
[10] = dose at which 50% of the tested animals show the effect, ≧: active in 30% of the animals at the indicated dose, ≦: active in 60%
[11] = po, * compound not soluble, tested orally as a suspension, ≧: active in 30% of the animals at the indicated dose, ≦: active in 60%
[12] = sc, subcutaneous, read-out: SD sc % occupancy at 10 mg/kg

| SMILES | IC50 [1, 5] | IC50 [1, 9] | IC50 [4] | also measured |
| --- | --- | --- | --- | --- |
| Cc1nc2c(N3CCOCC3)ccnn2c1-c1cnn(CC(F)(F)F)c1 [compound 137, 2-methyl-8-(4-morpholinyl)-3-[1-(2,2,2-trifluoroethyl)-1H-pyrazol-4-yl]-imidazo[1,2-b]pyridazine] | 25.7 nM | – | – | ED50 [2, 6]: > 2.5 mg/kg; receptor occupancy at 10 mg/kg [3, 7]: 12% |
| Cc1nc2c(N3CCOCC3)ccnn2c1-c1ccc(OCC(F)(F)F)nc1 [compound 62, 2-methyl-8-(4-morpholinyl)-3-[6-(2,2,2-trifluoroethoxy)-3-pyridinyl]-imidazo[1,2-b]pyridazine] | 257 nM | – | – | ED50 [2, 8]: > 2.5 mg/kg; receptor occupancy at 10 mg/kg [3, 7]: 38% |
| CC(C)(O)Cc1ccc(-c2c(C3CC3)nc3c(N4CCOCC4)ccnn23)cn1 [compound 54, 5-[2-cyclopropyl-8-(4-morpholinyl)imidazo[1,2-b]pyridazin-3-yl]-α,α-dimethyl-2-pyridineethanol] | 20.9 nM | 20.9 nM | > 10000 nM | ED50 [2, 10]: 1.2 mg/kg |
| Cc1cc(N2CCOCC2)c2nc(C)c(-c3ccc(N4CCOCC4)nc3)n2n1 [compound 68, 2,6-dimethyl-8-(4-morpholinyl)-3-[6-(4-morpholinyl)-3-pyridinyl]-imidazo[1,2-b]pyridazine] | 158 nM | 158 nM | > 10000 nM | ED50 [2, 11]: ≥ 2.5 mg/kg |
| CCc1nc2c(-c3ccncc3)ccnn2c1-c1cnn(CCOC)c1 [compound 132, 2-ethyl-3-[1-(2-methoxyethyl)-1H-pyrazol-4-yl]-8-(4-pyridinyl)-imidazo[1,2-b]pyridazine] | 70.8 nM | – | – | ED50 [2, 6]: > 10 mg/kg; receptor occupancy at 10 mg/kg [3, 12]: 44% |
| FC(F)(F)Cn1cc(-c2c(C3CC3)nc3c(N4CCOCC4)ccnn23)cn1 [compound 138, 2-cyclopropyl-8-(4-morpholinyl)-3-[1-(2,2,2-trifluoroethyl)-1H-pyrazol-4-yl]-imidazo[1,2-b]pyridazine] | 39.8 nM | – | – | ED50 [2, 8]: > 10 mg/kg; receptor occupancy at 10 mg/kg [3, 7]: 11% |
| Cc1cc(-c2ccncc2)c2nc(C3CC3)c(-c3ccc(N4CCOCC4)nc3)n2n1 [compound 71, 2-cyclopropyl-6-methyl-3-[6-(4-morpholinyl)-3-pyridinyl]-8-(4-pyridinyl)-imidazo[1,2-b]pyridazine] | 83.2 nM | 83.2 nM | 2290 nM | ED50 [2, 11]: ≥ 2.5 mg/kg |
| COCCn1cc(-c2c(C)nc3c(-c4ccncc4)cc(C(F)(F)F)nn23)cn1 [compound 129, 3-[1-(2-methoxyethyl)-1H-pyrazol-4-yl]-2-methyl-8-(4-pyridinyl)-6-(trifluoromethyl)-imidazo[1,2-b]pyridazine] | 2630 nM | 2630 nM | > 10000 nM | – |
| COCCn1cc(-c2c(C)nc3c(-c4ccncc4)ccnn23)cn1 [compound 114, 3-[1-(2-methoxyethyl)-1H-pyrazol-4-yl]-2-methyl-8-(4-pyridinyl)-imidazo[1,2-b]pyridazine] | 52.5 nM | – | – | ED50 [2, 6]: > 2.5 mg/kg; receptor occupancy at 10 mg/kg [3, 12]: 72% |
| Cc1cc(N2CCOCC2)c2nc(C3CC3)c(-c3ccc(N4CCOCC4)nc3)n2n1 [compound 75, 2-cyclopropyl-6-methyl-8-(4-morpholinyl)-3-[6-(4-morpholinyl)-3-pyridinyl]-imidazo[1,2-b]pyridazine] | 447 nM | 447 nM | > 10000 nM | – |
| COCCn1cc(-c2c(C)nc3c(N4CCOCC4)cc(C(F)(F)F)nn23)cn1 [compound 130, 3-[1-(2-methoxyethyl)-1H-pyrazol-4-yl]-2-methyl-8-(4-morpholinyl)-6-(trifluoromethyl)-imidazo[1,2-b]pyridazine] | 219 nM | – | – | ED50 [2, 8]: > 10 mg/kg; receptor occupancy at 10 mg/kg [3, 7]: 6% |
| CCc1ccc(-c2c(C3CC3)nc3c(N4CCOCC4)cc(C)nn23)cn1 [compound 84, 2-cyclopropyl-3-(6-ethyl-3-pyridinyl)-6-methyl-8-(4-morpholinyl)-imidazo[1,2-b]pyridazine] | 372 nM | 372 nM | > 10000 nM | – |
| COCCOc1ccc(-c2c(C)nc3c(-c4ccncc4)ccnn23)cn1 [compound 21a, 3-[6-(2-methoxyethoxy)-3-pyridinyl]-2-methyl-8-(4-pyridinyl)-imidazo[1,2-b]pyridazine hydrochloride salt] | 151 nM | – | – | PDE10 in vivo occupancy ED50 po ([3]; dose response, oral administration): 14 mg/kg; PDE10 in vivo occupancy ED50 sc ([3]; dose response, subcutaneous administration): 2.6 mg/kg |
| COCCOc1ccc(-c2c(C3CC3)nc3c(-c4ccncc4)cc(C)nn23)cn1 [compound 72, 2-cyclopropyl-3-[6-(2-methoxyethoxy)-3-pyridinyl]-6-methyl-8-(4-pyridinyl)-imidazo[1,2-b]pyridazine] | 123 nM | 123 nM | 1050 nM | ED50 [2, 11]: ≥ 2.5 mg/kg |
| COC(C)(C)Cc1ccc(-c2c(C3CC3)nc3c(-c4ccncc4)ccnn23)cn1 [compound 50, 2-cyclopropyl-3-[6-(2-methoxy-2-methylpropyl)-3-pyridinyl]-8-(4-pyridinyl)-imidazo[1,2-b]pyridazine] | 14.5 nM | 14.5 nM | 6920 nM | ED50 [2, 10]: 0.8 mg/kg |
| c1cc(N2CCOCC2)c2ncc(-c3ccc(C4CC4)nc3)n2n1 [compound 112, 3-(6-cyclopropyl-3-pyridinyl)-8-(4-morpholinyl)-imidazo[1,2-b]pyridazine] | 427 nM | 427 nM | 8130 nM | – |
| COCCn1cc(-c2c(C)nc3c(N4CCCC4)ccnn23)cn1 [compound 136, 3-[1-(2-methoxyethyl)-1H-pyrazol-4-yl]-2-methyl-8-(1-pyrrolidinyl)-imidazo[1,2-b]pyridazine] | 525 nM | 525 nM | > 10000 nM | – |
| Cc1cc(N2CCOCC2)c2nc(C)c(-c3ccc(C4CC4)nc3)n2n1 [compound 110, 3-(6-cyclopropyl-3-pyridinyl)-2,6-dimethyl-8-(4-morpholinyl)-imidazo[1,2-b]pyridazine] | 331 nM | 331 nM | > 10000 nM | – |
